Data on one compound can be found in US6855513B1 (priority 1999, dated 2005).

SMILES strings stand for the structures.

Experiment [1] relates to lasB-lacZ chromosomal fusion. Description: Acyl-HSL response of lasB-lacZ chromosomal fusion in P. aeruginosa PAO-MW1. Format: cell-based, Pseudomonas aeruginosa. Particulars: late response. How it is done: E. coli and P. aeruginosa were routinely grown in Luria-Bertani (LB) broth or LB agar (Sambrook, et al. (1989) Molecular Cloning: a Laboratory Manual. (Cold Spring Harbor Laboratory, Cold Spring Harbor, N.Y.)), supplemented with antimicrobial agents when necessary. The antimicrobial agents were used at the following concentrations: HgCl2, 15 μg/ml in agar and 7.5 μg/ml in broth; nalidixic acid 20 μg/ml; carbenicillin, 300 μg/ml; tetracycline, 50 μg/ml for P. aeruginosa and 20 μg/ml for E. coli; and gentamicin, 100 μg/ml for P. aeruginosa and 15 μg/ml for E. coli. Synthetic acyl-HSL concentrations were 2 μM for 3OC12-HSL and 5 μM for C4-HSL, and 5-bromo4-chloro-3-indolyl-β-D-galactopyranoside (X-Gal) was used at 50 μg/ml.
A mutant strain, P. aeruginosa PAO-MW 10, which contains a lacZ reporter in the chromosomal lasB gene was constructed by introduction of pMW300 into PAO-MW1 by triparental mating as described above. Exconjugants resistant to gentamicin and sensitive to chloramphenicol were selected as potential recombinants.
Patterns of Acyl-HSL Induction of β-galactosidase Activity in qsc Mutants. The pattern of β-galactosidase expression was examined in response to acyl-HSLs in each of 47 qsc mutants identified in the initial screen. […] Growth was monitored as OD at 600 nm and β-galactosidase activity was measured in 0.1 ml samples taken at 0, 2, 5, and 9 hours after inoculation.

The test system of experiment [2] is P. aeruginosa lasI mutant biofilm. Particulars: flow-through chamber; resistance to 0.2% sodium dodecyl sulfate; cited from earlier work.

Regarding `CCCCCCCCCC(=O)CC(=O)N[C@H]1CCOC1=O` [3OC12-HSL, N-(3-oxododecanoyl) homoserine lactone], the “Stimulation of lasB-lacZ fusion over background” value in experiment [1] was 3 fold. Moreover, the “Biofilm phenotype after adding signal back to lasI mutant cells” value in experiment [2] was “wild type phenotype was restored”.
